Results: patent US10004723B2, “Aromatase inhibitor-releasing intravaginal device” (University of Saskatchewan, priority 2013, dated 2018)
Marks after values point to notes of the source that are not given here.

Experiments:
bovine granulosa cells = experiment: Inhibition of estradiol production in bovine granulosa cell culture; assay type: cell-based; conditions: for concentration of estradiol compared with negative control (no FSH stimulation): letrozole 20 and 2 ng/mL, anastrozole 200 and 20 ng/mL, FSH-stimulated cells
Description: Inhibition of estradiol production by two aromatase inhibitors (letrozole and anastrozole) and a benzimidazole (fenbendazole) was tested in vitro using a bovine granulosa cell culture.
The granulosa cell culture protocol has been described previously (Zamberlam, Portela et al., 2011). Briefly, bovine ovaries were obtained at a local abattoir and transported to the lab where granulosa cells of antral follicles were collected by rinsing the follicle wall with Dulbecco's Modified Eagle Medium Nutrient Mixture F-12 (DMEMIF12, Invitrogen Life Technologies, Burlington, ON, Canada). Granullosa cells were maintained in culture for 6 days at 37° C. in 5% CO2, in 700 uL of culture medium (Zamberlam, Portela et al., 2011) which was replaced every 2 days. Cells were maintained in culture from Days 0 to 2, followed by the addition of 1 ng/mL of FSH from Days 2 to 4. On Day 4, depending on the treatment group, the culture medium was supplemented with 1 ng/mL FSH plus the estrogen inhibitor of interest, with FSH alone (positive control) or no FSH (negative control). On Day 6, the culture medium was collected and total protein was measured by the Bradford method (Bio-Rad, Mississauga, ON, Canada). Estradiol levels were determined by radioimmunoassay and expressed as total pg of estradiol per ug of protein.
Three different levels of each compound were tested. The standard concentration used for letrozole was 20 ng/mL. […] The standard dose of fenbendazole was based on a reported maximum concentration 160 ng/mL fenbendazole in plasma after a single oral administration of 7.5 mg/kg of body weight in cattle (Sanyal, 1994). Low and high doses of each aromatase inhibitor were arbitrarily set at standard concentration× 1/10 and standard concentration×10, respectively (Table 1).

[1] = tested on: MCF-7 cancer cell preparations; conditions: reported (Kudoh 1996; Bhatnagar 2007), read-out: half maximal inhibitory concentration (IC50); cited from earlier work
[2] = single oral administration of 7.5 mg/kg of body weight in cattle (Sanyal, 1994); cited from earlier work
ovulation [3] = experiment: Inhibition of ovulation in cattle; assay type: in vivo; conditions: treatment during the pre-ovulatory wave in cattle
[4] = tested on: MCF-7 cancer cell preparations; experiment: Reported IC50 in MCF-7 cancer cell preparations; parameters: species or system human; conditions: based on the reported IC50 values
[5] = tested on: ovarian function in heifers; experiment: Example III: ovarian function and ovulation synchrony after letrozole device plus PGF and GnRH in heifers; assay type: in vivo, cattle; parameters: Degree of synchrony (residuals of the interval from GnRH to ovulation): unit not given here; conditions: for Dominant follicle diameter (mm) at day before ovulation: GnRH 24 h later, mean ± SEM; for Ovulation failure / Ovulation in relation to GnRH: Before / Ovulation in relation to GnRH: Synchronized: number of heifers
Excerpt: (§1) Heifers were examined daily by transrectal ultrasonography to determined the interval to ovulation, which served as control data for comparison with the synchronizing effect of subsequent aromatase inhibitor treatment in the same animals. One heifer was excluded for further use due to aggressive behaviour and handling difficulty. At the time of ovulation (Day 0), heifers were assigned randomly to five groups (n=8-10/group) and given an intravaginal device with a wax-based plus gel coat formulation containing 3 g of letrozole (as described in Example 1) for 4 days starting on Day 0, 4, 8, 12, or 16. At the time of device removal, heifers were given 500 μg PGF followed by 100 μg of GnRH 24 h later (FIG. 10).
Ultrasound examinations were performed daily from two days before device insertion to 9 days after post-treatment ovulation. Observations from ultrasound examinations were recorded on a sketch sheet in which each ovary and its structures (CL and follicles a 4 mm in diameter) were represented by size and location. Ovulation was defined as the disappearance of a […] between successive examinations after GnRH treatment, and was confirmed by the subsequent detection of a CL [20]. The time of follicular wave emergence was defined as the day of ovulation, or retrospectively as the day when the dominant follicle was first identified at a diameter of 4 to 5 mm. If the dominant follicle was not identified until it reached 6 or 7 mm, the previous day was considered day of wave emergence. The dominant follicle of a wave was defined as the largest antral follicle of the wave. The day of onset of follicular and luteal regression was defined as the first day of an apparent progressive decrease in follicular and luteal diameters, respectively.
Statistical analyses were done using the Statistical Analysis System software package (SAS Learning Edition 9.1, 2006; SAS Institute Inc., Cary, N.C., USA). Time-series hormone data and follicular diameter profiles were analyzed by analysis of variance for repeated measures using the PROC MIXED procedure to determine the effects of day of treatment (0, 4, 8, 12, and 16), time, and their interactions. Individual time-point comparisons among groups were compared using the least significant difference (LSD) test. Single-point measurements (dominant follicle diameter at device insertion, pre-ovulatory follicle diameter, CL diameter 9 days after the post-treatment ovulation and interval from GnRH treatment to ovulation) were analyzed by one-way analysis of variance. The proportion of heifers that ovulated were compared by Chi-Square test. The degree of synchrony among groups was compared by analysis of variance of the residuals of the interval from GnRH to ovulation. Significance was defined as P≤0.05.

ovulation [6] = experiment: Induction of ovulation in women; assay type: in vivo, human; conditions: women treated at 18 mm follicle diameter
plasma estradiol = experiment: Example III: plasma estradiol at device removal in heifers; assay type: in vivo, cattle
Excerpt: as §1, with “One heifer was excluded for further use due to aggressive behaviour and handling difficulty.” left out
Blood samples were collected by coccygeal venipuncture into 10 mL heparinized vacuum tubes (Becton Dickinson Vacutainer Systems, Franklin Lakes, N.J., USA). Samples were collected at the time of device removal for estradiol measurement, and at 3, 6 and 9 days following the post-treatment ovulation to determine progesterone concentrations: Additionally, blood samples were collected on Days 4, 8, 12, and 16 from heifers included in Group 16 (Day 0=ovulation) to serve as control data for comparison of estradiol concentrations at the time of device removal in other treatment groups (Groups 0, 4, 8, and 12). […] Blood samples were centrifuged at 1500×g for 20 min and plasma was separated and stored in plastic tubes at −20° C. until assayed.
Plasma concentrations of estradiol were determined using a commercial radioimmunoassay kit (Double Antibody Estradiol; Diagnostic Products, Los Angeles, Calif., USA). The procedure was carried out in the Department of Animal Health and Biomedical Sciences, University of Wisconsin-Madison, as described, with the following modifications: Standards (0.78-100 pg/mL) were prepared in steroid-free (charcoal-treated) bovine plasma. The standards (250 μL in duplicate) and plasma samples (500 μL in duplicate) were extracted with 3 mL of diethyl ether, frozen in a dry-ice/methanol bath, decanted into assay tubes, and dried overnight under a fume hood. The dried samples and standards were re-suspended with 100 μL of assay buffer (0.1% gelatin in PBS).

[7] = letrozole groups combined, letrozole device added to PGF-GnRH protocol

Structure (SMILES): CC(C)(C#N)c1cc(Cn2cncn2)cc(C(C)(C)C#N)c1 [Anastrozole, anastrozole]
- dose at which estradiol synthesis was reduced to that of non-FSH-stimulated cells (bovine granulosa cells): 200 ng/mL
- concentration of estradiol compared with negative control (no FSH stimulation) (bovine granulosa cells): did not differ from that of the negative control
- IC50 [1]: 0.82 nM

Structure (SMILES): COC(=O)Nc1nc2ccc(Sc3ccccc3)cc2[nH]1 [Fenbendazole, fenbendazole]
- reduction of estradiol secretion by FSH-stimulated granulosa cells (bovine granulosa cells; at the levels tested): did not reduce estradiol secretion significantly
- maximum concentration in plasma [2]: 160 ng/mL

Structure (SMILES): N#Cc1ccc(C(c2ccc(C#N)cc2)n2cncn2)cc1 [Letrozole, letrozole]
- delay of ovulation (ovulation [3]): 24 h
- dose at which estradiol synthesis was reduced to that of non-FSH-stimulated cells (bovine granulosa cells): 20 ng/mL
- concentration of estradiol compared with negative control (no FSH stimulation) (bovine granulosa cells): did not differ from that of the negative control
- potency relative to anastrozole [4]: approximately 11 times
- Dominant follicle diameter (mm) at day before ovulation ([5]; 3 g letrozole device 4 days from Day 0, PGF at removal): 12.8 ± 0.58^a mm
- Dominant follicle diameter (mm) at day before ovulation ([5]; 3 g letrozole device 4 days from Day 4, PGF at removal): 16.4 ± 0.78^b mm
- Dominant follicle diameter (mm) at day before ovulation ([5]; 3 g letrozole device 4 days from Day 8, PGF at removal): 14.5 ± 0.83^ab mm
- Dominant follicle diameter (mm) at day before ovulation ([5]; 3 g letrozole device 4 days from Day 12, PGF at removal): 14.2 ± 0.48^ab mm
- Dominant follicle diameter (mm) at day before ovulation ([5]; 3 g letrozole device 4 days from Day 16, PGF at removal): 11.7 ± 0.59^a mm
- heifers with CL of normal diameter at last observation (percent) ([5]; 9 days post-letrozole treatment ovulation): 62.5%
- Days from GnRH treatment to ovulation ([5]; Letrozole groups combined): 1.9 ± 0.08 days
- Degree of synchrony (residuals of the interval from GnRH to ovulation) ([5]; Letrozole groups combined): 0.24 ± 0.07
- Ovulation failure (percent) ([5]; Letrozole groups combined): 6%
- Ovulation in relation to GnRH: Before (percent) ([5]; Letrozole groups combined): 12%
- Ovulation in relation to GnRH: Synchronized (percent) ([5]; Letrozole groups combined): 81%
- heifers that underwent luteolysis prior to the last observation (percent) ([5]; by 9 days after ovulation): 37.5%
- heifers that underwent luteolysis prior to the last observation ([5]; by 9 days after ovulation, number of 48 heifers): 18
- Proportion that ovulated (heifers/treated) [5, 7]: 42/48
- Proportion that ovulated (percent) [5, 7]: 87.1%
- Ovulation failure ([5]; Letrozole groups combined): 3
- Ovulation in relation to GnRH: Before ([5]; Letrozole groups combined): 6
- Ovulation in relation to GnRH: Synchronized ([5]; Letrozole groups combined): 39
- Ovulation failure ([5]; treatment initiated on Day 0): 0
- Ovulation in relation to GnRH: Before ([5]; treatment initiated on Day 0): 0
- Ovulation in relation to GnRH: Synchronized ([5]; treatment initiated on Day 0): 10
- Ovulation failure ([5]; treatment initiated on Day 4): 0
- Ovulation in relation to GnRH: Before ([5]; treatment initiated on Day 4): 3
- Ovulation in relation to GnRH: Synchronized ([5]; treatment initiated on Day 4): 7
- Ovulation failure ([5]; treatment initiated on Day 8): 1
- Ovulation in relation to GnRH: Before ([5]; treatment initiated on Day 8): 0
- Ovulation in relation to GnRH: Synchronized ([5]; treatment initiated on Day 8): 7
- Ovulation failure ([5]; treatment initiated on Day 12): 1
- Ovulation in relation to GnRH: Before ([5]; treatment initiated on Day 12): 0
- Ovulation in relation to GnRH: Synchronized ([5]; treatment initiated on Day 12): 10
- Ovulation failure ([5]; treatment initiated on Day 16): 1
- Ovulation in relation to GnRH: Before ([5]; treatment initiated on Day 16): 3
- Ovulation in relation to GnRH: Synchronized ([5]; treatment initiated on Day 16): 5
- ovulation earlier than controls (ovulation [6]): 24 h
- estradiol concentrations at device removal compared to respective controls (plasma estradiol; Group 0 (P=0.02)): lower
- estradiol concentrations at device removal compared to respective controls (plasma estradiol; Group 4 (P=0.05)): lower
- estradiol concentrations at device removal compared to respective controls (plasma estradiol; Group 8 (P=0.1)): tended to be lower
- estradiol concentrations at device removal compared to respective controls (plasma estradiol; Group 12 (P=0.9)): not different from Day 12 controls
- estradiol concentration at device removal (average) (plasma estradiol; all letrozole-treated groups): 2.1 ± 0.24 pg/mL
- IC50 [1]: 0.07 nM
